Reference: paper PMC8042122 (Scientific Reports, 2021)
“Also recorded” adds a separate entry of the source. Read-outs that look alike come from different tables or passages of the source. No end group written: not given here.

Tests used:
[1] = tested on: F. graminearum CBS185.32 strain; format: cell-based, Fusarium graminearum
[2] = tested on: F. graminearum CBS185.32 strain; format: cell-based, Fusarium graminearum; remark: listed apart in the source
[3] = tested on: F. graminearum CBS185.32 strain; format: cell-based, Fusarium graminearum; remark: listed apart in the source
[4] = tested on: F. graminearum strain 8/1; conditions: cited from earlier work
bacterial growth = conditions: cited from earlier work

With “C(CH3)GNFLKRTC(CH3)IC(CH3)VKK [TC3-CH3-123, TC3 with all Cys capped with CH3 groups]” the DON production ([1]; 50 µM) was “significantly more” and the 15-ADON production ([2]; 50 µM) was “significantly more”.
In the case of “C(CH3)GNFLKRTCICVKK (disulfide) [TC3-CH3-1Ox, TC3-CH3-1 oxidized, cyclized through the non-capped Cys]”, the DON production ([1]; 50 µM) is reported as “reduction”, the 15-ADON production ([2]; 50 µM) is reported as “reduction” and the “Reduction of 15-ADON production” value ([2]; 50 µM) is reported as “about 42%”. The “Effect on fungal growth (fungal biomass weight)” value (“Effect … (fungal biomass weight)” for short) ([3]; 50 µM) was “significantly less effect”.
With “C(CH3)GNFLKRTCICVKK [TC3-CH3-1, TC3 with Cys1 capped with a methyl group]” the DON production ([1]; 50 µM) was “reduction”, the 15-ADON production ([2]; 50 µM) was “reduction” and the “Reduction of 15-ADON production” value ([2]; 50 µM) was “about 33%”. The “Effect … (fungal biomass weight)” value ([3]; 50 µM) was “significantly less effect”.
For “CGNFLKRTC(CH3)ICVKK (disulfide) [TC3-CH3-2Ox, TC3-CH3-2 oxidized, cyclized through the non-capped Cys]”, the “Effect … (fungal biomass weight)” value ([3]; 50 µM) was “significantly less effect”.
With “CGNFLKRTC(CH3)ICVKK [TC3-CH3-2, TC3 with Cys9 capped with a methyl group]” the “Effect … (fungal biomass weight)” value ([3]; 50 µM) was “significantly less effect”.
With “CGNFLKRTCIC(CH3)VKK (disulfide) [TC3-CH3-3Ox, TC3-CH3-3 oxidized, cyclized through the non-capped Cys]” the “Effect … (fungal biomass weight)” value ([3]; 50 µM) was “significantly less effect”.
For “CGNFLKRTCIC(CH3)VKK [TC3-CH3-3, TC3 with Cys11 capped with a methyl group]”, the “Effect … (fungal biomass weight)” value ([3]; 50 µM) was “significantly less effect”.
In the case of “CGNFLKRTCICVKK (disulfide (positions not given here)) [TC3Ox]”, the DON production ([1]; 25 µM) is reported as “significantly decreased”, the DON production ([1]; 50 µM) is reported as “significantly decreased” and the 15-ADON production ([2]; 25 µM) is reported as “significantly decreased”. The 15-ADON production ([2]; 50 µM) was “significantly decreased” and the “Effect on fungal growth (dry fungal biomass weight)” value [3] was “reduced effect”.
For “CGNFLKRTCICVKK [TC3, γ-core of the Ixodes ricinus defensin DefMT3, reduced (linear) form]”, the DON production ([1]; 12.5 µM) was “non-significant reduction”, the DON production ([1]; 25 µM) was “trace amounts” and the DON production ([1]; 50 µM) was “trace amounts; also recorded: abrogated”. For the same substance, the 15-ADON production ([2]; 12.5 µM) was “non-significant reduction”, the 15-ADON production ([2]; 25 µM) was “trace amounts” and the 15-ADON production ([2]; 50 µM) was “trace amounts; also recorded: abrogated”. For the same substance, the Effect on germination [4] was “decrease germination”, the “Effect on fungal growth (dry fungal biomass weight)” value [3] was “significant dose-dependent inhibition” and the “Reduction of fungal growth (fold)” value ([3]; 50 µM) was 1.8 times. For the same substance, the “Effect on bacterial growth” value (bacterial growth) was “little or no effect”.
For “CGNFLKRTCICVKT [TC3-K14T, TC3 with Lys 14 substituted by Thr]”, the “Effect on fungal growth (dry fungal biomass weight)” value [3] was “no effect”.
